Measured values from patent US6887468B1 (Board of Regents, The University of Texas System, priority 1999, dated 2005).
“Also recorded” adds a separate entry of the source.

Tests used:
[1] = test system: VEGFR2 (KDR/Fc); experiment: Co-precipitation assay, VEGF with VEGFR2/Fc in solution; assay type: binding; conditions: F(ab′)2
Procedure: 200 ng of soluble forms of VEGFR1 (Flt-1/Fc) or VEGFR2 (KDR/Fc, R&D Systems, Minneapolis, Minn.) were added for a total volume of 50 μl and incubated for 2 hrs. The receptor/Fc constructs were precipitated using Protein A-sepbarose beads and the resulting precipitate was washed 4 times with binding buffer.
Reducing sample buffer was added to the pellet and supernatant of each reaction and both were analyzed by 12% SDS-PAGE and transferred to PVDF membranes. […] The soluble receptor/Fc constructs were also detected by using peroxidase-conjugated goat anti-human Fc (Kirkegaard & Perry Laboratories, Inc.)
The receptor/Fc constructs were precipitated by incubation with Protein A sepharose beads. The precipitate was washed and resuspended in reducing sample buffer and separated by 12% SDS-PAGE and transferred to PVDF.

[2] = Blood clearance of radioiodinated 2C3-GUS after intravenous injection; assay type: in vivo, mice; conditions: 125I-labelled
Text: 2C3-GUS was radioiodinated with ^125I to a specific activity of 5×10^6 cpm/μg.

[3] = test system: human NCI-H358 NSCLC tumors; experiment: Localization of 2C3-GUS after i.v. injection into tumor-bearing SCID mice; assay type: in vivo
[4] = biological target: T1, VEGF alone or VEGF associated with sFlk-1 (VEGF:Flk-1) (Homo sapiens, UniProt P15692); experiment: Indirect and capture ELISA for reactivity with VEGF alone or VEGF associated with sFlk-1; assay type: binding; conditions: VEGF alone or VEGF:Flk-1
T1 sequence (P15692 27-191 isoform P15692-4): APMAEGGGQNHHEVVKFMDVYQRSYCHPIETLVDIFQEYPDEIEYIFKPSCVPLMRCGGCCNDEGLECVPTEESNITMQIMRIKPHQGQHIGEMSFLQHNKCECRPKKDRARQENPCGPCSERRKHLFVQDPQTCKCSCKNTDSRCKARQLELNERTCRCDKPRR
Procedure: The Flk-1/SEAP protein was produced and purified as described by Tessler etal. (1994). Basically, the extracellular domain of Flk-1 (sFlk-1) was produced in Spodoptera frugiperda (Sf9) cells and purified by immunoaffinity techniques utilizing a monoclonal anti-Flk-1 antibody (1A8). sFlk-1 was then biotinylated and bound on avidin-coated plates.
The reactivity was determined as described above for the initial screening.
A capture ELISA was also developed. In the capture ELISA, microtiter plates were coated overnight at 4° C. with 100 ng of the indicated antibody. […] Streptavidin conjugated to peroxidase (Kirkegaard & Perry Laboratories, Inc.), diluted 1:2000, was used as a second layer and developed.

[5] = biological target: T2, denatured VEGF121 and VEGF165 (Homo sapiens, UniProt P15692); experiment: Western blot analysis of anti-VEGF antibodies; assay type: binding; conditions: reducing and non-reducing conditions
T2 sequence (P15692 27-191 isoform P15692-4): T1 sequence (P15692 27-191 isoform P15692-4)
Procedure: The nitrocellulose membrane was blocked using Sea-Block PP82-41 (East Coast Biologics, Berwick, Me.), and probed with primary antibodies using a mini-blotter apparatus (Immunetics, Cambridge, Mass.). The membranes were developed after incubation with the appropriate peroxidase-conjugated secondary antibody by ECL enhanced chemiluminescence.
Western blot analyses of anti-VEGF antibodies were conducted by separating VEGF165 in the presence of 5% FCS using SDS-PAGE on a 12% gel and analyzing by a standard western blotting protocol using ECL detection. The primary antibodies were incubated with the nitrocellulose membrane using a multi-lane mini-blotter apparatus.

[6] = biological target: T3, mouse VEGF (Mus musculus, UniProt Q00731); experiment: Indirect ELISA with mouse VEGF; assay type: binding
T3 sequence (Q00731 27-190 isoform Q00731-2): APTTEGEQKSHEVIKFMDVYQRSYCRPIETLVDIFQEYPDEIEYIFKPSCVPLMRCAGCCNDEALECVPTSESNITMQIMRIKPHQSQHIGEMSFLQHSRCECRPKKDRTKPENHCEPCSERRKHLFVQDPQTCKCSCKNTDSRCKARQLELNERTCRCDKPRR

[7] = test system: VEGF-mediated growth of ABAE cells; experiment: Endothelial cell growth assay (MTS), VEGF-mediated growth of ABAE cells; assay type: cell-based, bovine; conditions: summary table
Procedure: ABAE cells were grown in the presence of the various indicated antibodies and 0.5 nM VEGF. Growth after 4 days was determined colorimetrically by the enzymatic conversion of MTS (Owen's reagent) to a yellow formazan. […] Background was determined by growing cells without VEGF or antibody and was subtracted from the control and sample wells.
Adult bovine aortic endothelial (ABAE) cells were plated into 96-well tissue culture plates at 1500 cells/well and grown in the presence of 0.5 nM human VEGF with the addition of the various sample and control antibodies. Control wells received media with or without VEGF.
After 4 days of incubation, the cells were quantified by an MTS (3-(4,5-dimethylthiazol-2-yl)-5-(3-carboxylmethoxyphenyl)-2-(4-sulfophenyl)-2H-tetrazolium, inner salt) conversion assay, where MTS conversion to a formazan is proportional to cell number and can be followed by absorbance at 490 nm (Cell Titer 96 AQueous One Solution Cell Proliferation Assay, Promega, Madison, Wis.). The assay was performed according to the manufacturer's instructions.
Cell growth was estimated by subtracting the MTS conversion in cultures to which VEGF was not added. Results were expressed as a percentage of the MTS conversion in control cultures to which only VEGF was added (Buttke et al., 1993).

[8] = test system: KDR; experiment: 125I-VEGF binding studies on KDR expressing endothelial cells (ABAE cells); design: species or system bovine
[9] = test system: NCI-H358 NSCLC and HT29 colon adenocarcinoma xenografts and normal organs; experiment: In vivo localization in mice bearing human tumor xenografts (immunohistochemistry 24 h after i.v. injection); design: species or system mouse
Procedure: Tumors were grown subcutaneously in immunocompromised mice (NCI-H358 NSCLC in nu/nu mice and HT29 colon adenocarcinoma in SCID mice) until the tumor volume was approximately 1 cm^3. 100 μg of unlabeled antibody for studies using SCID mice, or 100 μg of biotinylated antibody for studies using nude mice, was injected intravenously via a tail vein. Twenty four hours later, the mice were anesthetized, perfused with PBS, and tumor and organs including heart, lungs, liver, kidneys, intestines and spleen were collected and snap frozen in liquid nitrogen.
The tumor and organs from each mouse were sectioned on a cryostat and stained for antibody immunohistochemically as above, with the exception that sections from the nude mice were developed using peroxidase labeled streptavidin-biotin complex (Dako, Carpinteria, Calif.) and the sections from the SCID mice were developed using two peroxidase-conjugated secondary antibodies, a goat anti-mouse IgG+IgM followed by a rabbit anti-goat IgG.
100 μg of GV39M and 3E7 or isotype-matched control IgG were injected into SCID mice bearing HT29 human colonic adenocarcinomas. Twenty-four hours later, the mice were sacrificed, exsanguinated and the tumors and tissues were removed.

[10] = test system: VEGFR2 (KDR/Flk-1), sFlk-1-biotin; experiment: ELISA: VEGF binding to VEGFR2-coated wells in presence of antibody; design: species or system mouse
Procedure: (§1) FIG. 2. […] The plate was then incubated with rabbit anti-VEGF (A-20, Santa Cruz Biotechnology, Inc.) at 1 μg/ml and developed using a peroxidase conjugated goat anti-rabbit antibody. Assays were performed in triplicate. Mean percent binding in the absence of antibody is shown, together with the standard deviation.
(§2) The assay was also performed by coating wells of a microtiter plate with either control or test IgG.

[11] = test system: VEGFR1 (FLT-1), Flt-1/Fc; experiment: ELISA: VEGF binding to VEGFR1-coated wells in presence of antibody; conditions: summary table
Procedure: as §1, §2

[12] = test system: VEGFR2; experiment: VEGF-induced phosphorylation of VEGFR2 in PAE/KDR cells (immunoprecipitation, western blot); assay type: cell-based, porcine aortic endothelial cells transfected with VEGFR2; conditions: antibody 100 nM
Procedure: PAE/KDR, PAE/FLT, and bEND.3 cells were grown to 80-90% confluency in 100 mm tissue dishes in media containing 5% serum. The cells were then serum starved for 24 hours in media containing 0.1% serum. After pretreatment with 100 […] in PBS for 30 min, the cells were incubated with 5 nM (200 ng/ml) VEGF165, 5 nM (100 ng/ml) bFGF (R&D Systems, Minneapolis, Minn.), or A673 tumor conditioned media in the presence or absence of control or test antibodies for additional 15 min.
The cells were then washed with ice-cold PBS containing 10 mM EDTA, 2 mM sodium fluoride, and 2 mM sodium orthovanadate and lysed in lysis buffer (50 mM Tris, 150 mM NaCl, 1% Nonidet P40, 0.25% sodium deoxycholate, 0.1% CHAPS, 5 mM EDTA, 1.5 mM MgCl2, 2 mM sodium fluoride, 2 mM sodium orthovanadate, 10% glycerol and protease inhibitors (Complete Protease Inhibitor Cocktail tablets, Boehringer Mannheim)). The lysates were clarified by centrifugation and resulting supematant used for immunoprecipitation.
The reactions using the chicken anti-FLT-1 antibody were subsequently incubated with a bridging goat anti-chicken antibody (Kirkegaard and Perry Laboratories, Inc.) for 1 h at 4° C. […]

[13] = test system: NCI-H358 NSCLC; experiment: In vivo tumor growth inhibition, newly-implanted NCI-H358 NSCLC; design: species or system nu/nu mice
Procedure: (§3) FIG. 3A and FIG. 3B. […] FIG. 3A: 1×10^7 NCI-H358 NSCLC cells were injected subcutaneously into nu/nu mice on day 0. FIG. 3B: 5×10^6 A673 rhabdomyosarcoma cells were injected subcutaneously into nu/nu mice on day 0. Mice were injected i.p. with the indicated IgG on day 1 and 2 times/week thereafter. […] Tumors were measured 2-3 times per week. Mean and standard error is shown for the duration of the study in FIG. 3A, while data for the last day of the study (day 26) is shown in FIG. 3B.
(§4) Nu/nu mice were injected subcutaneously with either 1×10^7 NCI-H358 NSCLC cells or 5×10^6 A673 rhabdomyosarcoma cells on day 0. […] The tumors were then measured twice per wk for a period of approximately six wk for the NCI-H358 bearing mice and four wk for the A673 bearing mice. Tumor volume was calculated according to the formula: volume=L×W×H, where L=length, W=width, H=height.

[14] = test system: A673 rhabdomyosarcoma; experiment: In vivo tumor growth inhibition, newly-implanted A673 rhabdomyosarcoma; design: species or system nu/nu mice
Procedure: as §3, §4

[15] = test system: NCI-H358 NSCLC tumors; experiment: Treatment of established NCI-H358 NSCLC tumor xenografts; assay type: in vivo, nu/nu mice
Procedure: FIG. 4. […] Mean tumor volume along with the SEM over 116 days is shown.
(§5) FIG. 5A and FIG. 5B. […] Treatments (T) were 100 μg of the IgG given i.p., except for the initial treatment that consisted of 500 μg of the IgG given i.v. Mean tumor volume along with the SEM is shown. At the end of the study (day 116), the mice were sacrificed and the tumors dissected out and weighed. […] The mice were treated every other day as indicated (T). […] Mean tumor volume along with the SE is shown.
(§6) Male nu/nu mice bearing subcutaneous NCI-H358 tumors or HT1080 fibrosarcoma 200-400 mm^3 in size were injected i.p. with test or control antibodies. The NCI-H358 bearing mice were treated with 100 μg of antibodies per injection three times a week during the first week and twice a week during the second and third week. The mice were then switched to 50 μg per injection every five days. The HT1080 bearing mice were treated with 100 μg of the indicated antibody or saline every other day throughout the duration of the study. In both studies, mice were sacrificed when their tumors reached 2500 mm^3 in size or earlier if tumors began to ulcerate.
Doses were 50-100 μg every 3-5 days. […] In addition to measuring mean tumor volume (FIG. 4), photographs of the mice from each treatment group were also taken to show the differences in tumor size and appearance at the end of the study.

[16] = test system: HT1080 fibrosarcoma; experiment: Treatment of established HT1080 fibrosarcoma xenografts; assay type: in vivo, nu/nu mice; conditions: 100 μg every two days
Procedure: as §5, §6

[17] = test system: progressive disease in cancer patients; conditions: clinical trials; cited from earlier work
[18] = dose-related; cited from earlier work
[19] = 100 μg i.p. 2 times per wk from day 1, controls approximately 1000 mm^3

2C3 F(ab′)2: F(ab′)2 fragment of 2C3
Blocking of VEGF binding to VEGFR2/Fc in solution [1]: blocked the binding of VEGF to VEGFR2/Fc

2C3-GUS
t½ α [2]: about 6 hours
t½ β [2]: about 25 hours
Localization after i.v. injection ([3]; immunohistochemistry on frozen tumor sections): specifically localized to tumor vasculature and surrounding tumor stroma
Staining of normal tissues ([3]; mouse, in vivo): Normal tissues were unstained

2C3: anti-VEGF monoclonal IgG2a,k from hybridoma ATCC PTA 1595; blocks VEGF binding to VEGFR2 but not VEGFR1
Predominant Reactivity [4]: VEGF
Reactivity with VEGF on western blot [5]: react with denatured VEGF121 and VEGF165 under reducing and non-reducing conditions
Reactivity with mouse VEGF [6]: all the antibodies except 2C3 react with mouse VEGF
Blocks VEGF-induced proliferation [7]: Yes
Blocking of 125I-VEGF binding to KDR [8]: blocks VEGF from binding to KDR in a concentration dependent manner
Immunohistochemical Reactivity, Tumor ([9]; 24 hours after i.v. antibody, 3E7 and GV39M bound tumor vascular endothelium, 2C3 tumor stroma): 3+
In vivo localization in H358 human NSCLC tumor ([9]; biotinylated antibody, i.v., nu/nu mice): intense staining of connective tissue surrounding the vasculature
In vivo localization in HT29 human tumor model ([9]; mouse, in vivo): localized strongly to the connective tissue
In vivo normal mouse tissue localization ([9]; mouse, in vivo): None
Reduction in VEGF binding to VEGFR2 ([10]; 100 fold molar excess over VEGF): about 74%
VEGF bound to VEGFR2-coated wells, % of amount bound in absence of antibody ([10]; 1000-fold molar excess over VEGF): ~19%
Reduction in VEGF binding to VEGFR2 ([10]; 1000 fold molar excess over VEGF): about 81%
Blocks VEGF from binding to VEGFR2 ([10]; summary table): Yes
Blocks VEGF from binding to VEGFR1 [11]: No
Blocking of VEGF-induced phosphorylation of VEGFR2 [12]: block VEGF-induced phosphorylation of VEGFR2 in PAE/KDR cells
Tumor growth retardation in NCI-H358 tumor model, lower dose ([13]; 10 μg twice per wk): less marked
Final tumor volume [13, 19]: approximately 150 mm^3
Final tumor volume [14, 19]: approximately 150 mm^3
Effect on growth of A673 tumors, lower doses ([14]; 10 or 1 μg twice per wk): did slow the growth of A673 tumors
Mean tumor weight at end of study (day 116) ([15]; 100 μg i.p., initial treatment 500 μg i.v.): 0.054 g
Mean tumor volume after approximately 14 wk of treatment ([15]; 100 μg, start 480 mm^3 (2C3), 428 mm^3 (3E7)): 84 mm^3
Mean tumor volume at the end of the study as % of initial mean tumor volume ([15]; 50-100 μg i.p. every 3-5 days, approximately 10 weeks): 30%
Decrease in mean tumor volume ([15]; approximately 14 wk of treatment, 100 μg): approximately 80%
Regression of established NCI-H358 tumors ([15]; mouse, in vivo): caused significant tumor regressions; also recorded: slow regression of the tumors
Effect on growth of established HT1080 tumors [16]: arrested the growth of the tumors

NC(=O)c1nnn(Cc2cc(Cl)c(C(=O)c3ccc(Cl)cc3)c(Cl)c2)c1N [CAI, carboxyamidotriazole]
Disease stabilization, share of cancer patients having progressive disease before treatment [17]: 49%

recombinant, humanized form of Genentech's anti-VEGF antibody: recombinant, humanized form of Genentech's anti-VEGF antibody evaluated in monkeys (Ryan et al., 1999)
Preclinical safety finding in monkeys [18]: physeal dysplasia
